Data published in patent publication US20250108088A1, “REGENERATIVE PEPTIDES AND METHODS FOR USE THEREOF” (priority 2023, published 2025).

Tests used:
Format in all cases: cell-based
[1] = system: Normal human dermal fibroblasts (HNDF); assay: Myofibroblast transition assay (MFT), aSMA immunofluorescence; conditions: N = 3; for Myofibroblast transition (MFT), aSMA/cell, % change relative to control: TGF-Beta induced HNDF, control of no peptide
Method in brief: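 HNDFs serum-starved (1% FBS) 4 h, then stimulated with 20 ng/ml TGF-beta plus peptide at various concentrations for 5 days. Fixed cells immunostained for aSMA with DAPI counterstain, imaged by cytometer; aSMA/DAPI ratio gives aSMA per cell, normalized to no-peptide control.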

[2] = system: Acinetobacter baumannii ATCC 196062; assay: Broth microdilution method (MIC50/MIC90)
Procedure: (§1) Cell culture: Cultures of each bacterial strain were prepared by inoculating on Muller Hinton Agar (MHA) medium. After overnight incubation at 37° C., the density of the bacterial cells was compared to the McFarland turbidity standard (0.5).
(§2) Ten-fold serial dilution of the peptide along with controls were prepared in Mueller Hinton Broth (MHB) media in a total volume of 50 μl in 96 well plates. Additionally, 50 μl of the diluted standard inoculum (1:150 in MHB media) were added to each of the well plates. The plates were read at OD600 nm. MIC50 and MIC90 curves were calculated from the plate readout. Each sample was run in duplicate.

[3] = system: Staphylococcus aureus strains, including the MRSA col strain; assay: Broth microdilution method (MIC50/MIC90)
Procedure: as §1, §2

[4] = system: Klebsiella pneumoniae ATCC 10031; assay: Broth microdilution method (MIC50/MIC90)
Procedure: as §1, §2

[5] = system: Pseudomonas aeruginosa ATCC 27853; assay: Broth microdilution method (MIC50/MIC90)
Procedure: as §1, §2

[6] = system: Staphylococcus aureus, Streptococcus pneumoniae, Klebsiella pneumoniae, Pseudomonas aeruginosa, Acinetobacter baumannii; assay: Antimicrobial assays, growth of bacterial strains
Procedure: Infection is another perturbation that causes fibrosis and may delay or inhibit wound healing. To determine if the peptides of the instant disclosure affect the growth of bacteria, and thus may be appropriate as antimicrobial peptides to be used in anti-fibrotic treatments, growth of the following bacterial strains was tested with the exemplary peptides: Staphylococcus aureus: USA300, ST80, JE2, and MRSA col; Streptococcus pneumoniae: DCC1335 and D39; Klebsiella pneumoniae; Pseudomonas aeruginosa; and Acinetobacter baumannii. […] Thus, in some embodiments, the peptides of the instant disclosure may bacterial growth, by a least 20%, at least 30%, at least 40%, at least 50%, at least 60%, at least 70%, or at least 80% relative to the control.
To determine which peptides may be used to inhibit the growth of bacteria in tissue, the minimum inhibitory and bactericidal concentrations of exemplary peptides against both Gram-positive and Gram-negative bacteria were assessed. […]
The antimicrobial effects of the exemplary peptides were assessed in the following bacterial strains: Staphylococcus aureus: USA300, ST80, JE2, and MRSA col; Streptococcus pneumoniae: DCC1335 and D39; Klebsiella pneumoniae ATCC 10031; Pseudomonas aeruginosa ATCC 27853; and Acinetobacter baumannii ATCC 196062. […]

[7] = system: Acinetobacter baumannii ATCC 196062; assay: Minimum bactericidal concentration (MBC); conditions: agar plates; FIG. 9
Procedure: (§3) The minimum bactericidal concentration (MBC) test determines the lowest concentration at which an antimicrobial agent will kill a particular microorganism. The MBC is determined using a series of steps, undertaken after a Minimum Inhibitory Concentration (MIC) test has been completed. o determine the MBC, the dilution representing the MIC and at least two of the more concentrated test product dilutions are plated and enumerated to determine viable CFU/ml. The […] of the peptides was determined as the lowest concentration in which colony forming units (CFU) values were <5 colonies/10 μl of culture.

[8] = system: Staphylococcus aureus ST80; assay: Minimum bactericidal concentration (MBC); conditions: agar plates; FIG. 9
Procedure: as §3

[9] = system: Klebsiella pneumoniae ATCC 10031; assay: Minimum bactericidal concentration (MBC); conditions: agar plates; FIG. 9
Procedure: as §3

[10] = system: interleukin-8 (IL-8) production in human fibroblasts; assay: Fibroblast inflammation assay (LPS-induced IL-8, ELISA); conditions: N = 3, 5 μg/mL LPS, 24 hours
Procedure: Inflammation in fibroblasts leads to the production of the chemokine interleukin-8 (IL-8), which stimulates fibroblast to myofibroblast transition (MFT) thereby enhancing scar formation. To determine if the peptides of the instant disclosure affect fibroblast response to inflammation and fibroblast IL-8 production, the following assays were performed.
Human fibroblasts were grown as described above. HNDFs were plated in 96 well plates at a concentration of 1×10^4 cells/well and allowed to incubate overnight. The next day cells were dosed with 5 μg/mL of LPS with and without the peptides. The negative control contained only media and vehicle, while the positive control was dosed with lipopolysaccharides (LPS) and dexamethasone (50 μg/ml). After 24 hours, the media was removed to measure IL6 and IL8 cytokine levels using ELISA. A standard curve was plotted in excel. All data were blank subtracted and then fit onto the curve to calculate cytokine concentrations.

[11] = system: Acinetobacter baumannii ATCC 196062; assay: Diffusion agar plate method, zone of inhibition; conditions: 62.5 μg/ml to 1000 μg/ml; FIG. 5, FIG. 10
Procedure: as §1
(§4) Plates were swabbed with McFarland 0.5 inoculum of each test bacteria. […] serial dilutions of the peptides were prepared and 20 μl of compound were dropped onto the MHA. Antibiotic disc served as a positive control and vehicle alone served as the negative control. Plates were incubated for 16-18 hours and assessed for antibacterial activity. Zones of inhibition were measured for each TA dilution and compared with the controls.

[12] = system: Staphylococcus aureus USA300 (NRS384), ST80, JE2, MRSA col; assay: Diffusion agar plate method, zone of inhibition; conditions: 62.5 μg/ml to 1000 μg/ml; FIG. 5
Procedure: as §1, §4

[13] = system: Pseudomonas aeruginosa ATCC 27853; assay: Diffusion agar plate method, zone of inhibition; conditions: 62.5 μg/ml to 1000 μg/ml; FIG. 5
Procedure: as §1, §4

FAYCRSKGLRKRLRKFRNK [MBb32]
Myofibroblast transition (MFT), aSMA/cell, % change relative to control ([1]; 100 ng/ml peptide): −0.2592% | Myofibroblast transition (MFT), aSMA/cell, % change relative to control ([1]; 1000 ng/ml peptide): −0.3087% | MFT, Representative value from experiments (% change relative to control) ([1]; most effective significant concentration of 10, 100, 1000 ng/ml): −0.3087 p = (0.039) % | MIC50, growth inhibition of bacteria in broth [2]: lowest MIC50 | MIC50, growth inhibition of bacteria in broth [3]: low MIC50 | MIC50, growth inhibition of bacteria in broth [4]: low MIC50 | MIC50, growth inhibition of bacteria in broth [5]: low MIC50 | inhibition of bacterial growth among those peptides tested [6]: strongest effect | minimum bactericidal concentration (MBC), bactericidal effect [7]: bactericidal effect | minimum bactericidal concentration (MBC), bactericidal effect [8]: bactericidal effect | minimum bactericidal concentration (MBC), bactericidal effect [9]: bactericidal effect | Fibroblast induced chemokine production (IL-8) induced by LPS (% change relative to control) ([10]; 100 ug/ml peptide): 4% (p = .054) | Fibroblast induced chemokine production (IL-8) induced by LPS (% change relative to control) ([10]; 1000 ug/ml peptide): 29% (p = 0.035) | agar zone of inhibition, inhibiting bacterial growth [11]: effective | agar zone of inhibition, inhibiting bacterial growth [12]: effective | agar zone of inhibition, inhibiting bacterial growth [13]: effective
